Measurements published in patent US10696707B2, “Polyene macrolide derivative” (Shionogi & Co., Ltd., priority 2014, dated 2020).

test system: red blood cells (5% RBC suspension); assay: Test Example 2-1: in vitro hemolytic activity test (upper limit 50, 80, 100 or 200 μmol/L); assay type: cell-based; settings: Erythrocyte, 1 h; hemolysis method 50 (upper concentration 50 μmol/L); 5% RBC suspension, 37° C., one hour; read-out: hemolysis IC50
Description: Nephrotoxic potentials of the compounds of the present invention except the compounds whose X is —N(R^F)—CO—X^1 and X^1 is the group represented by formula (III) and T is —N(R^a5)— were investigated by in vitro hemolytic activity test under the condition, in that, the upper limit was 50 μmol/L, 80 μmol/L, 100 μmol/L, or 200 μmol/L as the required concentration to 50% of hemolysis (IC50).
Defibrinated sterile blood was centrifuged at 700×g for 3 minutes and, and the supernatant was removed for 100% of red blood cells. After the cleaning with physiological saline, the washed blood cells was suspended in the medium (Earle's balanced salt sodium, bicarbonate, 0.1 g/L L-glutamine without phenol red), and was diluted by 5% (5% RBC suspension).
The washed blood was diluted by 5% in water for injection (solution of complete hemolysis), and was used as the indication of optical density for complete hemolysis.
The compounds of the present invention solution in DMSO (several and doubling dilutions starting from 2.5 mmol/L, 4 mmol/L, 5 mmol/L, or 10 mmol/L), DMSO as the negative control, and Amphotericin B as the positive control were used, and each 5 μL of these was added in to a well of V-form 96 well type microplate.
Finally, the maximum concentration of the compounds of the present invention solution in DMSO was 50 μmol/L, 80 μmol/L, 100 μmol/L, or 200 μmol/L by adding 245 μL of the medium or 5% RBC suspension into the well.
Two hundred fifty μL of the solution of complete hemolysis was added into another well and the microplate was incubated at 37° C. in 5% of CO2 concentration for an hour.
After the incubation, each 100 μL of supernatants in wells was collected by centrifugation of the microplate at 300×g for 5 minutes and was located on a well of flat-form 96 well type microplate. An absorbance of each supernatant was measured at wavelength of 540 nm.
Percent hemolysis was calculated by using the followed equation. The required concentration to 50% of hemolysis (IC50) was calculated based on the percent hemolysis. […] Hemolysis (%)=(CR−VM)×100÷(VL−VR) Where:
CR: Absorbance of 5% RBC suspension incubated with the compounds of the present invention solution in DMSO
VM: Absorbance of medium incubated with the compounds of the present invention solution in DMSO
VL: Absorbance of solution of complete hemolysis
VR: Absorbance of 5% RBC suspension incubated with DMSO
The “hemolysis method” in the table means any tests the upper concentration of above IC50 are 50 μmol/L, 80 μmol/L, 100 μmol/L or 200 μmol/L. The “>50”, “>80”, “>100” or “>200” in the table means above IC50 value exceeded the each upper concentration.

For C[C@@H]1[C@H](O)[C@@H](C)/C=C/C=C/C=C/C=C/C=C/C=C/C=C/[C@H](O[C@@H]2O[C@H](C)[C@@H](O)[C@H](NC[C@@]3(O)OC[C@@H](O)[C@H](O)[C@@H]3O)[C@@H]2O)C[C@@H]2O[C@](O)(C[C@@H](O)C[C@@H](O)[C@H](O)CC[C@@H](O)C[C@@H](O)CC(=O)O[C@H]1C)C[C@H](O)[C@H]2NC(=O)NC[C@H](O)CO [I-368], which IC50 is on record?
Its IC50 is > 50 µM.

With C[C@@H]1[C@H](O)[C@@H](C)/C=C/C=C/C=C/C=C/C=C/C=C/C=C/[C@H](O[C@@H]2O[C@H](C)[C@@H](O)[C@H](N)[C@@H]2O)C[C@@H]2O[C@](O)(C[C@@H](O)C[C@@H](O)[C@H](O)CC[C@@H](O)C[C@@H](O)CC(=O)O[C@H]1C)C[C@H](O)[C@H]2NC(=O)NC(CO[C@H]1O[C@H](CO)[C@@H](O)[C@H](O)[C@@H]1O)CO[C@H]1O[C@H](CO)[C@@H](O)[C@H](O)[C@@H]1O [I-254] as the molecule, how does the IC50 read?
The IC50 was > 50 µM.

Which IC50 does the source give for C[C@@H]1[C@H](O)[C@@H](C)/C=C/C=C/C=C/C=C/C=C/C=C/C=C/[C@H](O[C@@H]2O[C@H](C)[C@@H](O)[C@H](N)[C@@H]2O)C[C@@H]2O[C@](O)(C[C@@H](O)C[C@@H](O)[C@H](O)CC[C@@H](O)C[C@@H](O)CC(=O)O[C@H]1C)C[C@H](O)[C@H]2NC(=O)N1CC(O[C@H]2OC(CO)[C@@H](O)[C@H](O)C2O)C1 (stereo partly drawn) [I-303] here?
Its IC50 is > 50 µM.

same assay, conditions: Erythrocyte, 1 h; hemolysis method 100 (upper concentration 100 μmol/L); 5% RBC suspension, 37° C., one hour; read-out: hemolysis IC50

How did the IC50 turn out when C[C@@H]1[C@H](O)[C@@H](C)/C=C/C=C/C=C/C=C/C=C/C=C/C=C/[C@H](O[C@@H]2O[C@H](C)[C@@H](O)[C@H](N)[C@@H]2O)C[C@@H]2O[C@](O)(C[C@@H](O)C[C@@H](O)[C@H](O)CC[C@@H](O)C[C@@H](O)CC(=O)O[C@H]1C)C[C@H](O)[C@H]2NC(=O)NCCc1c[nH]cn1 [I-5] was run?
The IC50 was 94 µM.

same assay, conditions: hemolysis method 50 (upper concentration 50 μmol/L); 5% RBC suspension, 37° C., one hour; read-out: hemolysis IC50

C[C@@H]1[C@H](O)[C@@H](C)/C=C/C=C/C=C/C=C/C=C/C=C/C=C/[C@H](O[C@@H]2O[C@H](C)[C@@H](O)[C@H](N)[C@@H]2O)C[C@@H]2O[C@](O)(C[C@@H](O)C[C@@H](O)[C@H](O)CC[C@@H](O)C[C@@H](O)CC(=O)O[C@H]1C)C[C@H](O)[C@H]2NC(=O)N(O)C[C@@H](O)C(=O)O [I-295] was tested. Which IC50 did it give?
Its IC50 is > 50 µM.

For CCCN(O)C(=O)N[C@H]1[C@@H]2C[C@@H](O[C@@H]3O[C@H](C)[C@@H](O)[C@H](N)[C@@H]3O)/C=C/C=C/C=C/C=C/C=C/C=C/C=C/[C@H](C)[C@@H](O)[C@@H](C)[C@H](C)OC(=O)C[C@H](O)C[C@H](O)CC[C@@H](O)[C@H](O)C[C@H](O)C[C@](O)(C[C@@H]1O)O2 [I-280], which IC50 is on record?
The IC50 was > 50 µM.

With C[C@@H]1[C@H](O)[C@@H](C)/C=C/C=C/C=C/C=C/C=C/C=C/C=C/[C@H](O[C@@H]2O[C@H](C)[C@@H](O)[C@H](N)[C@@H]2O)C[C@@H]2O[C@](O)(C[C@@H](O)C[C@@H](O)[C@H](O)CC[C@@H](O)C[C@@H](O)CC(=O)O[C@H]1C)C[C@H](O)[C@H]2NC(=O)NOCC(CO)CO [I-255] as the molecule, how does the IC50 read?
The IC50 was > 50 µM.

For C[C@@H]1[C@H](O)[C@@H](C)/C=C/C=C/C=C/C=C/C=C/C=C/C=C/[C@H](O[C@@H]2O[C@H](C)[C@@H](O)[C@H](N)[C@@H]2O)C[C@@H]2O[C@](O)(C[C@@H](O)C[C@@H](O)[C@H](O)CC[C@@H](O)C[C@@H](O)CC(=O)O[C@H]1C)C[C@H](O)[C@H]2NC(=O)NCCOCCOCCO [I-11], which IC50 is on record?
Its IC50 is > 50 µM.

With C[C@@H]1[C@H](O)[C@@H](C)/C=C/C=C/C=C/C=C/C=C/C=C/C=C/[C@H](O[C@@H]2O[C@H](C)[C@@H](O)[C@H](N)[C@@H]2O)C[C@@H]2O[C@](O)(C[C@@H](O)C[C@@H](O)[C@H](O)CC[C@@H](O)C[C@@H](O)CC(=O)O[C@H]1C)C[C@H](O)[C@H]2NC(=O)NC1(C#N)COC1 [I-258] as the molecule, how does the IC50 read?
Its IC50 is > 50 µM.

For C[C@@H]1[C@H](O)[C@@H](C)/C=C/C=C/C=C/C=C/C=C/C=C/C=C/[C@H](O[C@@H]2O[C@H](C)[C@@H](O)[C@H](N)[C@@H]2O)C[C@@H]2O[C@](O)(C[C@@H](O)C[C@@H](O)[C@H](O)CC[C@@H](O)C[C@@H](O)CC(=O)O[C@H]1C)C[C@H](O)[C@H]2NC(=O)NC(CCO)C(=O)O (stereo partly drawn) [I-249], which IC50 is on record?
The IC50 was > 50 µM.

How did the IC50 turn out when C[C@@H]1[C@H](O)[C@@H](C)/C=C/C=C/C=C/C=C/C=C/C=C/C=C/[C@H](O[C@@H]2O[C@H](C)[C@@H](O)[C@H](N)[C@@H]2O)C[C@@H]2O[C@](O)(C[C@@H](O)C[C@@H](O)[C@H](O)CC[C@@H](O)C[C@@H](O)CC(=O)O[C@H]1C)C[C@H](O)[C@H]2NC(=O)NCCNC(N)=O [I-93] was run?
Its IC50 is > 50 µM.

For C[C@@H]1[C@H](O)[C@@H](C)/C=C/C=C/C=C/C=C/C=C/C=C/C=C/[C@H](O[C@@H]2O[C@H](C)[C@@H](O)[C@H](N)[C@@H]2O)C[C@@H]2O[C@](O)(C[C@@H](O)C[C@@H](O)[C@H](O)CC[C@@H](O)C[C@@H](O)CC(=O)O[C@H]1C)C[C@H](O)[C@H]2NC(=O)NCC[C@H](O)CO [I-146], which IC50 is on record?
The IC50 was > 50 µM.

same assay, conditions: hemolysis method 80 (upper concentration 80 μmol/L); 5% RBC suspension, 37° C., one hour; read-out: hemolysis IC50

C[C@@H]1[C@H](O)[C@@H](C)/C=C/C=C/C=C/C=C/C=C/C=C/C=C/[C@H](O[C@@H]2O[C@H](C)[C@@H](O)[C@H](N)[C@@H]2O)C[C@@H]2O[C@](O)(C[C@@H](O)C[C@@H](O)[C@H](O)CC[C@@H](O)C[C@@H](O)CC(=O)O[C@H]1C)C[C@H](O)[C@H]2NC(=O)N1CCC(N(C)C)C1 (single isomer, unassigned) [I-49] was tested. Which IC50 did it give?
Its IC50 is > 80 µM.

For C[C@@H]1[C@H](O)[C@@H](C)/C=C/C=C/C=C/C=C/C=C/C=C/C=C/[C@H](O[C@@H]2O[C@H](C)[C@@H](O)[C@H](N)[C@@H]2O)C[C@@H]2O[C@](O)(C[C@@H](O)C[C@@H](O)[C@H](O)CC[C@@H](O)C[C@@H](O)CC(=O)O[C@H]1C)C[C@H](O)[C@H]2NC(=O)N1CCOCCOCCOCCOCCOCC1 [I-18], which IC50 is on record?
The IC50 was > 80 µM.

Which IC50 does the source give for C[C@@H]1[C@H](O)[C@@H](C)/C=C/C=C/C=C/C=C/C=C/C=C/C=C/[C@H](O[C@@H]2O[C@H](C)[C@@H](O)[C@H](N)[C@@H]2O)C[C@@H]2O[C@](O)(C[C@@H](O)C[C@@H](O)[C@H](O)CC[C@@H](O)C[C@@H](O)CC(=O)O[C@H]1C)C[C@H](O)[C@H]2NC(=O)NCCN(C)C [I-51] here?
Its IC50 is > 80 µM.

With C[C@@H]1[C@H](O)[C@@H](C)/C=C/C=C/C=C/C=C/C=C/C=C/C=C/[C@H](O[C@@H]2O[C@H](C)[C@@H](O)[C@H](N)[C@@H]2O)C[C@@H]2O[C@](O)(C[C@@H](O)C[C@@H](O)[C@H](O)CC[C@@H](O)C[C@@H](O)CC(=O)O[C@H]1C)C[C@H](O)[C@H]2NC(=O)N1CCCN(CCCN2CCOCC2)CC1 [I-23] as the molecule, how does the IC50 read?
Its IC50 is 79 µM.

How did the IC50 turn out when C[C@@H]1[C@H](O)[C@@H](C)/C=C/C=C/C=C/C=C/C=C/C=C/C=C/[C@H](O[C@@H]2O[C@H](C)[C@@H](O)[C@H](N)[C@@H]2O)C[C@@H]2O[C@](O)(C[C@@H](O)C[C@@H](O)[C@H](O)CC[C@@H](O)C[C@@H](O)CC(=O)O[C@H]1C)C[C@H](O)[C@H]2NC(=O)N1CCC(N(C)C)CC1 [I-54] was run?
The IC50 was > 80 µM.

same assay, conditions: hemolysis method 100 (upper concentration 100 μmol/L); 5% RBC suspension, 37° C., one hour; read-out: hemolysis IC50

Which IC50 does the source give for C[C@@H]1[C@H](O)[C@@H](C)/C=C/C=C/C=C/C=C/C=C/C=C/C=C/[C@H](O[C@@H]2O[C@H](C)[C@@H](O)[C@H](N)[C@@H]2O)C[C@@H]2O[C@](O)(C[C@@H](O)C[C@@H](O)[C@H](O)CC[C@@H](O)C[C@@H](O)CC(=O)O[C@H]1C)C[C@H](O)[C@H]2NC(=O)NC(CO)Cc1c[nH]cn1 (stereo partly drawn) [I-6] here?
Its IC50 is 75 µM.

C[C@@H]1[C@H](O)[C@@H](C)/C=C/C=C/C=C/C=C/C=C/C=C/C=C/[C@H](O[C@@H]2O[C@H](C)[C@@H](O)[C@H](N)[C@@H]2O)C[C@@H]2O[C@](O)(C[C@@H](O)C[C@@H](O)[C@H](O)CC[C@@H](O)C[C@@H](O)CC(=O)O[C@H]1C)C[C@H](O)[C@H]2NC(=O)N(N)CCO [I-212] was tested. Which IC50 did it give?
Its IC50 is > 100 µM.

For C[C@@H]1[C@H](O)[C@@H](C)/C=C/C=C/C=C/C=C/C=C/C=C/C=C/[C@H](O[C@@H]2O[C@H](C)[C@@H](O)[C@H](N)[C@@H]2O)C[C@@H]2O[C@](O)(C[C@@H](O)C[C@@H](O)[C@H](O)CC[C@@H](O)C[C@@H](O)CC(=O)O[C@H]1C)C[C@H](O)[C@H]2NC(=O)NCCn1cncn1 [I-9], which IC50 is on record?
The IC50 was > 100 µM.

With C[C@@H]1[C@H](O)[C@@H](C)/C=C/C=C/C=C/C=C/C=C/C=C/C=C/[C@H](O[C@@H]2O[C@H](C)[C@@H](O)[C@H](N)[C@@H]2O)C[C@@H]2O[C@](O)(C[C@@H](O)C[C@@H](O)[C@H](O)CC[C@@H](O)C[C@@H](O)CC(=O)O[C@H]1C)C[C@H](O)[C@H]2NC(=O)NCCCN1CCOCC1 [I-8] as the molecule, how does the IC50 read?
Its IC50 is 96 µM.
